Measured values published in BigSolDB 2.1.

Q: For CC(=O)c1c(C)c([N+](=O)[O-])c(C(C)(C)C)c([N+](=O)[O-])c1C, which solubility (mole fraction) (in ethanol, 273.15 K) is on record?
A: 0.0016

Q: And the solubility (mole fraction) (in ethanol, 278.15 K)?
A: 0.00198

Q: And the solubility (mole fraction) (in ethanol, 283.15 K)?
A: 0.00241

Q: What about the solubility (mole fraction) (in ethanol, 288.15 K) of the same compound?
A: 0.00295

Q: What about the solubility (mole fraction) (in ethanol, 293.15 K) of the same compound?
A: 0.00354

Q: And the solubility (mole fraction) (in ethanol, 298.15 K)?
A: 0.00426

Q: And the solubility (mole fraction) (in ethanol, 303.15 K)?
A: 0.00512

Q: And the solubility (mole fraction) (in ethanol, 308.15 K)?
A: 0.00619

Q: What about the solubility (mole fraction) (in ethanol, 313.15 K) of the same compound?
A: 0.0074

Q: What about the solubility (mole fraction) (in ethyl acetate, 273.15 K) of the same compound?
A: 0.055

Q: What about the solubility (mole fraction) (in ethyl acetate, 278.15 K) of the same compound?
A: 0.0641

Q: And the solubility (mole fraction) (in ethyl acetate, 283.15 K)?
A: 0.0742

Q: And the solubility (mole fraction) (in ethyl acetate, 288.15 K)?
A: 0.0852

Q: And the solubility (mole fraction) (in ethyl acetate, 293.15 K)?
A: 0.0954

Q: And the solubility (mole fraction) (in ethyl acetate, 298.15 K)?
A: 0.111

Q: And the solubility (mole fraction) (in ethyl acetate, 303.15 K)?
A: 0.122

Q: And the solubility (mole fraction) (in ethyl acetate, 308.15 K)?
A: 0.139

Q: What about the solubility (mole fraction) (in ethyl acetate, 313.15 K) of the same compound?
A: 0.156

Q: What about the solubility (mole fraction) (in methanol, 273.15 K) of the same compound?
A: 0.00108

Q: And the solubility (mole fraction) (in methanol, 278.15 K)?
A: 0.00128

Q: What about the solubility (mole fraction) (in methanol, 283.15 K) of the same compound?
A: 0.00157

Q: And the solubility (mole fraction) (in methanol, 288.15 K)?
A: 0.00187

Q: What about the solubility (mole fraction) (in methanol, 293.15 K) of the same compound?
A: 0.00225

Q: What about the solubility (mole fraction) (in methanol, 298.15 K) of the same compound?
A: 0.00272

Q: What about the solubility (mole fraction) (in methanol, 303.15 K) of the same compound?
A: 0.00326

Q: And the solubility (mole fraction) (in methanol, 308.15 K)?
A: 0.00387

Q: And the solubility (mole fraction) (in methanol, 313.15 K)?
A: 0.00458

Q: What about the solubility (mole fraction) (in n-butanol, 273.15 K) of the same compound?
A: 0.0022

Q: And the solubility (mole fraction) (in n-butanol, 278.15 K)?
A: 0.00286

Q: And the solubility (mole fraction) (in n-butanol, 283.15 K)?
A: 0.00368

Q: And the solubility (mole fraction) (in n-butanol, 288.15 K)?
A: 0.00449

Q: What about the solubility (mole fraction) (in n-butanol, 293.15 K) of the same compound?
A: 0.00533

Q: What about the solubility (mole fraction) (in n-butanol, 298.15 K) of the same compound?
A: 0.00666

Q: And the solubility (mole fraction) (in n-butanol, 303.15 K)?
A: 0.00812

Q: What about the solubility (mole fraction) (in n-butanol, 308.15 K) of the same compound?
A: 0.00972

Q: And the solubility (mole fraction) (in n-butanol, 313.15 K)?
A: 0.012
